Results as given in PubChem BioAssay (NCI).
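Growth conditions: 96-well plates. Treatment: test compound, 48 hours, 5 concentrations. Analysis: linear interpolation between bracketing concentrations; unreached endpoints set to highest concentration. TGI marks complete inhibition of growth.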

Key:
Assay in all cases: NCI anticancer screen, dose series, 48 h
HOP-92 NSCLC = test system: HOP-92 NSCLC
UACC-62 melanoma = test system: UACC-62 melanoma
SF-539 CNS = test system: SF-539 CNS
RPMI-8226 leukemia = test system: RPMI-8226 leukemia
NCI-H522 lung = test system: NCI-H522 lung
ACHN renal = test system: ACHN renal
U251 CNS = test system: U251 CNS
HCT-15 colon = test system: HCT-15 colon
HOP-18 NSCLC = test system: HOP-18 NSCLC
SN12C renal = test system: SN12C renal
SNB-19 CNS = test system: SNB-19 CNS
SF-268 CNS = test system: SF-268 CNS
SNB-75 CNS = test system: SNB-75 CNS
DMS 273 small cell lung = test system: DMS 273 small cell lung
HCT-116 colon = test system: HCT-116 colon
SR leukemia = test system: SR leukemia
NCI-H23 lung = test system: NCI-H23 lung
HL-60(TB) leukemia = test system: HL-60(TB) leukemia
DLD-1 colon = test system: DLD-1 colon
NCI-H226 lung = test system: NCI-H226 lung
K-562 leukemia = test system: K-562 leukemia
OVCAR-5 ovarian = test system: OVCAR-5 ovarian
SNB-78 CNS = test system: SNB-78 CNS
A549 NSCLC = test system: A549 NSCLC
OVCAR-8 ovarian = test system: OVCAR-8 ovarian
SK-MEL-5 melanoma = test system: SK-MEL-5 melanoma
LOX IMVI melanoma = test system: LOX IMVI melanoma
M19-MEL melanoma = test system: M19-MEL melanoma
OVCAR-4 ovarian = test system: OVCAR-4 ovarian
DMS 114 small cell lung = test system: DMS 114 small cell lung
786-0 renal = test system: 786-0 renal
IGROV1 ovarian = test system: IGROV1 ovarian
HT29 colon = test system: HT29 colon
UACC-257 melanoma = test system: UACC-257 melanoma
KM20L2 colon = test system: KM20L2 colon
COLO 205 colon = test system: COLO 205 colon
SW-620 colon = test system: SW-620 colon
CCRF-CEM leukemia = test system: CCRF-CEM leukemia
MOLT-4 leukemia = test system: MOLT-4 leukemia
NCI-H460 lung = test system: NCI-H460 lung
KM12 colon = test system: KM12 colon
LXFL 529 NSCLC = test system: LXFL 529 NSCLC
EKVX NSCLC = test system: EKVX NSCLC
A498 renal = test system: A498 renal
M14 melanoma = test system: M14 melanoma
RXF 393 renal = test system: RXF 393 renal
SF-295 CNS = test system: SF-295 CNS
HOP-62 NSCLC = test system: HOP-62 NSCLC
SK-MEL-28 melanoma = test system: SK-MEL-28 melanoma
HCC-2998 colon = test system: HCC-2998 colon
SK-OV-3 ovarian = test system: SK-OV-3 ovarian
UO-31 renal = test system: UO-31 renal
OVCAR-3 ovarian = test system: OVCAR-3 ovarian
MALME-3M melanoma = test system: MALME-3M melanoma
TK-10 renal = test system: TK-10 renal
CAKI-1 renal = test system: CAKI-1 renal

Measured: TGI

Cn1nc(-c2cccc(-c3nn(C)c(=NCCO)s3)n2)sc1=NCCO
not listed: HCC-2998 colon | SK-OV-3 ovarian | UO-31 renal | OVCAR-3 ovarian | MALME-3M melanoma | TK-10 renal | CAKI-1 renal
> 100 µM: all other assays above

COC(=O)C1[C@@H](C(=O)OC)C(=O)O[C@H]1c1cc(OC)c(OC)c(OC)c1 (stereo partly drawn)
not listed: NCI-H522 lung | EKVX NSCLC
> 100 µM: all other assays above
